What was measured:
[1] = molecular target: T1, Recombinant STAT3 protein (STAT3(G127-I722)) (Homo sapiens, UniProt P40763); assay: STAT3 Fluorescence Polarization (FP) Assay; format: binding; settings: STAT3(G127-I722) 25 nM, probe 5-FAM-GpYLPQTV-NH2 2 nM, 45-minute incubation
T1 construct: Recombinant STAT3 protein (STAT3(G127-I722))
Outline: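 Fluorescence polarization after a 45-min room-temperature incubation measured compound displacement of a 2 nM fluorescein-labelled phosphotyrosine peptide (5-FAM-GpYLPQTV-NH2) from 25 nM recombinant STAT3(G127-I722). Buffer was 10 mM HEPES pH 7.4 with 1% DMSO final. IC50s were fitted by nonlinear regression of mP against log concentration.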

[2] = molecular target: T2, Recombinant STAT6 protein (STAT6(W123-T658)) (Homo sapiens, UniProt P42226); assay: STAT6 Fluorescence Polarization (FP) Assay; format: binding; settings: STAT6(W123-T658) 250 nM, probe 5-FAM-ApYKPFQDLI-NH2 2 nM, 45-minute incubation
T2 construct: Recombinant STAT6 protein (STAT6(W123-T658))
T2 sequence (P42226 123-658): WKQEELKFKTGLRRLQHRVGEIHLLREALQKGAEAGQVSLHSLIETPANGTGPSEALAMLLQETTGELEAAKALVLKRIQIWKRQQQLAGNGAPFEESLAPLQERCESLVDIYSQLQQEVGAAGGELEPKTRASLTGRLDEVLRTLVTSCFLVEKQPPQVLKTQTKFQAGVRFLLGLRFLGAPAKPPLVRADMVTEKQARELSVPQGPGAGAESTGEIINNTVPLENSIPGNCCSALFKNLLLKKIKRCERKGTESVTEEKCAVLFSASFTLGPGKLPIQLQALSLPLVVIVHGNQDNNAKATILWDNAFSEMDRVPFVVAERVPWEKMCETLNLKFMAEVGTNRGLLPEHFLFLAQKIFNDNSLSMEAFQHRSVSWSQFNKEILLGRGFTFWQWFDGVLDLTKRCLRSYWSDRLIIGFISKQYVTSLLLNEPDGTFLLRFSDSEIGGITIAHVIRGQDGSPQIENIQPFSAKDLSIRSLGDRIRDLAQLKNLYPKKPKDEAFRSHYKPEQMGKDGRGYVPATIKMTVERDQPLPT
Outline: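 Displacement of a fluorescent phosphotyrosine peptide (5-FAM-ApYKPFQDLI-NH2, 2 nM) from STAT6(W123-T658) (250 nM), 1% DMSO, pH 7.4 HEPES buffer. After 45 min at room temperature, polarization (mP) was plotted versus log compound concentration and fitted by nonlinear regression to give IC50.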

T1 sequence (P40763 127-722): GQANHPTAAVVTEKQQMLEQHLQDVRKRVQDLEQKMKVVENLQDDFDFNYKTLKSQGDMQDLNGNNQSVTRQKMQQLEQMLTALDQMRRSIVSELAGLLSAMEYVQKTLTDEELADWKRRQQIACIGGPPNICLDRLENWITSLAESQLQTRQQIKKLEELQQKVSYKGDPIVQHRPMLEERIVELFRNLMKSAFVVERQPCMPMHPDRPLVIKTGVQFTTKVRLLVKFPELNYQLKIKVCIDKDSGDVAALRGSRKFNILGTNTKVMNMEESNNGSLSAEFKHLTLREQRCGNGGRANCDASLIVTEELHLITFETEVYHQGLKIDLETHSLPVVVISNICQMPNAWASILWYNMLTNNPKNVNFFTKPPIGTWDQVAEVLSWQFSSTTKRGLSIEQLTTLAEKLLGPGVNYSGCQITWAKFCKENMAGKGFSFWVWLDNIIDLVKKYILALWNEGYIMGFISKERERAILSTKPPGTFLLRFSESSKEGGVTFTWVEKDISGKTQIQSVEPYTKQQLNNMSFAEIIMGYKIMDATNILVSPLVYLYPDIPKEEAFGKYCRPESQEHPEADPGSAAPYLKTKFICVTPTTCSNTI

| Molecule | IC50 [1] | IC50 [2] |
| --- | --- | --- |
| ((2-(((5S,8S,10aR)-3-acetyl-8-((rel-trans)-3-cyano-3-methyl-4-phenylpyrrolidine-1-carbonyl)-6-oxodecahydropyrrolo[1,2-a][1,5]diazocin-5-yl)carbamoyl)benzo[b]thiophen-5-yl)difluoromethyl)phosphonic acid [Compound 41] | 1000 to 10000 nM | ≤ 300 nM |
| CC(=O)N1CC[C@H]2CC[C@@H](C(=O)N3CCC(OCc4cncs4)C3)N2C(=O)[C@@H](NC(=O)c2cc3cc(C(F)(F)P(=O)(O)O)ccc3s2)C1 (stereo partly drawn) [Compound 82, ((2-(((5S,8S,10aR)-3-acetyl-6-oxo-8-(3-(thiazol-5-ylmethoxy)pyrrolidine-1-carbonyl)decahydropyrrolo[1,2-a][1,5]diazocin-5-yl)carbamoyl)benzo[b]thiophen-5-yl)difluoromethyl)phosphonic acid] | 1000 to 10000 nM | 300 to 3000 nM |
| O=C(N[C@H]1CN(Cc2ccn3ccnc3c2)CC[C@H]2CC[C@@H](C(=O)N3CC(c4cccnc4)C3)N2C1=O)c1cc2cc(C(F)(F)P(=O)(O)O)ccc2s1 [Compound 273, (difluoro(2-(((5S,8S,10aR)-3-(imidazo[1,2-a]pyridin-7-ylmethyl)-6-oxo-8-(3-(pyridin-3-yl)azetidine-1-carbonyl)decahydropyrrolo[1,2-a][1,5]diazocin-5-yl)carbamoyl)benzo[b]thiophen-5-yl)methyl)phosphonic acid] | ≤ 100 nM | 3000 to 30000 nM |
| CC(=O)N1CC[C@H]2CC[C@@H](C(=O)N(C)c3ccc(Cl)c(Cl)c3)N2C(=O)[C@@H](NC(=O)c2cc3cc(C(F)(F)P(=O)(O)O)ccc3s2)C1 [Compound 188, ((2-(((5S,8S,10aR)-3-acetyl-8-((3,4-dichlorophenyl)(methyl)carbamoyl)-6-oxodecahydropyrrolo[1,2-a][1,5]diazocin-5-yl)carbamoyl)benzo[b]thiophen-5-yl)difluoromethyl)phosphonic acid] | 1000 to 10000 nM | 300 to 3000 nM |
| Cc1ccc2onc(C(=O)N3CC[C@H]4CC[C@@H](C(=O)N5C[C@@H]6C[C@H]5CO6)N4C(=O)[C@@H](NC(=O)c4ccc5ccc(C(F)P(=O)(O)O)cc5c4)C3)c2c1 (stereo partly drawn) [Compound 372, ((7-(((5S,8S,10aR)-8-((1S,4S)-2-oxa-5-azabicyclo[2.2.1]heptane-5-carbonyl)-3-(5-methylbenzo[d]isoxazole-3-carbonyl)-6-oxodecahydropyrrolo [1,2-a][1,5]diazocin-5-yl)carbamoyl)naphthalen-2-yl)fluoromethyl)phosphonic acid] | > 10000 nM | ≤ 300 nM |
| N#Cc1ccccc1-c1ccc(NC(=O)[C@@H]2CC[C@@H]3CCN(C(=O)Cc4ccccc4)C[C@H](NC(=O)c4cc5cc(C(F)(F)P(=O)(O)O)ccc5[nH]4)C(=O)N32)cc1 [Compound 266, ((2-(((5S,8S,10aR)-8-((2′-cyano-[1,1′-biphenyl]-4-yl)carbamoyl)-6-oxo-3-(2-phenylacetyl)decahydropyrrolo[1,2-a][1,5]diazocin-5-yl)carbamoyl)-1H-indol-5-yl)difluoromethyl)phosphonic acid] | 100 to 1000 nM | ≤ 300 nM |
| CNC(=O)[C@@H]1CC[C@@H]2CCN(C(C)=O)C[C@H](NC(=O)c3cc4cc(C(F)(F)P(=O)(O)O)ccc4[nH]3)C(=O)N21 [Compound 36, ((2-(((5S,8S,10aR)-3-acetyl-8-(methylcarbamoyl)-6-oxodecahydropyrrolo[1,2-a][1,5]diazocin-5-yl)carbamoyl)-1H-indol-5-yl)difluoromethyl)phosphonic acid] | 1000 to 10000 nM | 300 to 3000 nM |
| CC(=O)N1CC[C@H]2CC[C@@H](C(=O)N3CCC[C@@H](c4ccccc4)C3)N2C(=O)[C@@H](NC(=O)c2cc3cc(C(F)(F)P(=O)(O)O)ccc3[nH]2)C1 [Compound 107, ((2-(((5S,8S,10aR)-3-acetyl-6-oxo-8-((S)-3-phenylpiperidine-1-carbonyl)decahydropyrrolo[1,2-a][1,5]diazocin-5-yl)carbamoyl)-1H-indol-5-yl)difluoromethyl)phosphonic acid] | 1000 to 10000 nM | ≤ 300 nM |
| CC(=O)N1CC[C@H]2CC[C@@H](C(=O)Nc3ccc(-c4ccccc4)cc3[N+](=O)[O-])N2C(=O)[C@@H](NC(=O)c2cc3cc(C(F)(F)P(=O)(O)O)ccc3s2)C1 [Compound 178] | 100 to 1000 nM | 300 to 3000 nM |
| CC(=O)N1CC[C@H]2CC[C@@H](C(=O)N3CCC(c4cccnc4)C3)N2C(=O)[C@@H](NC(=O)c2ccc3ccc(C(F)P(=O)(O)O)cc3c2)C1 (stereo partly drawn) [Compound 355, ((7-(((5S,8S,10a R)-3-acetyl-6-oxo-8-(3-(pyridin-3-yl)pyrrolidine-1-carbonyl)decahydro-pyrrolo [1,2-a][1,5]diazocin-5-yl)carbamoyl)naphthalen-2-yl)fluoromethyl) phosphonic acid] | 1000 to 10000 nM | 300 to 3000 nM |

The next lines start with the values.

| IC50 [1] | IC50 [2] | Molecule |
| --- | --- | --- |
| 1000 to 10000 nM | ≤ 300 nM | Cc1ccc2onc(C(=O)N3CC[C@H]4CC[C@@H](C(=O)N5C[C@@H](c6ccn(C)c(=O)c6)CC56CC6)N4C(=O)[C@@H](NC(=O)c4ccc5ccc(C(F)(F)P(=O)(O)O)cc5c4)C3)c2c1 [Compound 383, (difluoro(7-(((5S,8S, 10aR)-8-((R)-6-(1-methyl-2-oxo-1,2-dihydropyridin-4-yl)-4-azaspiro[2.4]heptane-4-carbonyl)-3-(5-methylbenzo[d]isoxazole-3-carbonyl)-6-oxodecahydropyrrolo [1,2-a][1,5]diazocin-5-yl)carbamoyl)naphthalen-2-yl)methyl)phosphonic acid] |
| 1000 to 10000 nM | 300 to 3000 nM | CC(=O)N1CC[C@H]2CC[C@@H](C(=O)N(C)c3ccccc3)N2C(=O)[C@@H](NC(=O)c2cc3cc(C(F)(F)P(=O)(O)O)ccc3[nH]2)C1 [Compound 30] |
| 1000 to 10000 nM | 300 to 3000 nM | CC(=O)N1CC[C@H]2CC[C@@H](C(=O)N(C)c3ccc(C(C)(C)C)c(Cl)c3)N2C(=O)[C@@H](NC(=O)c2cc3cc(C(F)(F)P(=O)(O)O)ccc3s2)C1 [Compound 160, ((2-(((5S,8S,10aR)-3-acetyl-8-((4-(tert-butyl)-3-chlorophenyl)(methyl)carbamoyl)-6-oxodecahydropyrrolo[1,2-a][1,5]diazocin-5-yl)carbamoyl)benzo[b]thiophen-5-yl)difluoromethyl)phosphonic acid] |
| 100 to 1000 nM | 300 to 3000 nM | CC(=O)N1CC[C@H]2CC[C@@H](C(=O)Nc3ccc(-c4ccccc4)[nH]c3=O)N2C(=O)[C@@H](NC(=O)c2cc3cc(C(F)(F)P(=O)(O)O)ccc3[nH]2)C1 [Compound 180, ((2-(((5S,8S,10aR)-3-acetyl-6-oxo-8-((2-oxo-6-phenyl-1,2-dihydropyridin-3-yl)carbamoyl)decahydropyrrolo[1,2-a][1,5]diazocin-5-yl)carbamoyl)-1H-indol-5-yl)difluoromethyl)phosphonic acid] |
| 1000 to 10000 nM | 300 to 3000 nM | CC(=O)N1CC[C@H]2CC[C@@H](C(=O)N3CCC(N(Cc4noc(C5CC5)n4)C(C)=O)C3)N2C(=O)[C@@H](NC(=O)c2cc3cc(C(F)(F)P(=O)(O)O)ccc3s2)C1 (stereo partly drawn) [Compound 85, ((2-(((5S,8S,10aR)-3-acetyl-8-(3-(N-((5-cyclopropyl-1,2,4-oxadiazol-3-yl)methyl)acetamido)pyrrolidine-1-carbonyl)-6-oxodecahydropyrrolo[1,2-a][1,5]diazocin-5-yl)carbamoyl)benzo[b]thiophen-5-yl)difluoromethyl)phosphonic acid] |
| 1000 to 10000 nM | 300 to 3000 nM | CC(=O)N1CC[C@H]2CC[C@@H](C(=O)Nc3ccc(=O)n(C)c3)N2C(=O)[C@@H](NC(=O)c2cc3cc(C(F)(F)P(=O)(O)O)ccc3s2)C1 [Compound 71, ((2-(((5S,8S,10aR)-3-acetyl-8-((1-methyl-6-oxo-1,6-dihydropyridin-3-yl)carbamoyl)-6-oxodecahydropyrrolo[1,2-a][1,5]diazocin-5-yl)carbamoyl)benzo[b]thiophen-5-yl)difluoromethyl)phosphonic acid] |
| 1000 to 10000 nM | ≤ 300 nM | CC(=O)N1CC[C@H]2CC[C@@H](C(=O)N3C[C@@H](C#N)[C@H](c4cc[nH]c(=O)c4)C3)N2C(=O)[C@@H](NC(=O)c2ccc3ccc(C(F)(F)P(=O)(O)O)cc3c2)C1 (single isomer, unassigned) [Compound 39, ((7-(((5S,8S,10aR)-3-acetyl-8-((3S,4R or 3R,4S)-3-cyano-4-(2-oxo-1,2-dihydropyridin-4-yl)pyrrolidine-1-carbonyl)-6-oxodecahydropyrrolo[1,2-a][1,5]diazocin-5-yl)carbamoyl)naphthalen-2-yl)difluoromethyl)phosphonic acid] |
